# Results: ChEMBL document CHEMBL1149623, “Identification of antibacterial and antiviral activities of novel fused 1,2,4-triazine esters” (2007)
# What was measured:
# [1] = Cytotoxicity against monkey GMK cells at 200 ug/mL after 24 hrs by MTT assay; format: functional, Chlorocebus aethiops
# HEK293 [2] = test: Cytotoxicity against human HEK293 cells at 50 ug/mL after 96 hrs by MTT assay; format: functional
# [3] = Cytotoxicity against monkey GMK cells at 200 ug/mL after 72 hrs by MTT assay; format: functional, Chlorocebus aethiops
# HEK293 [4] = test: Cytotoxicity against human HEK293 cells at 5 ug/mL after 96 hrs by MTT assay; format: functional
# [5] = Cytotoxicity against monkey GMK cells at 10 ug/mL after 96 hrs by MTT assay; format: functional, Chlorocebus aethiops
# HEK293 [6] = test: Cytotoxicity against human HEK293 cells at 10 ug/mL after 24 hrs by MTT assay; format: functional
# [7] = Cytotoxicity against monkey GMK cells at 2.5 ug/mL after 96 hrs by MTT assay; format: functional, Chlorocebus aethiops
# HEK293 [8] = test: Cytotoxicity against human HEK293 cells at 200 ug/mL after 96 hrs by MTT assay; format: functional
# Echovirus E9 [9] = test: Antiviral activity against Human echovirus 9 in GMK cells assessed as virus titre at 100 ug/mL after 1 hr; format: functional
# HEK293 [10] = test: Cytotoxicity against human HEK293 cells at 200 ug/mL after 120 hrs by MTT assay; format: functional
# HEK293 [11] = test: Cytotoxicity against human HEK293 cells at 100 ug/mL after 24 hrs by MTT assay; format: functional
# HEK293 [12] = test: Cytotoxicity against human HEK293 cells at 5 ug/mL after 48 hrs by MTT assay; format: functional
# [13] = Cytotoxicity against monkey GMK cells at 25 ug/mL after 96 hrs by MTT assay; format: functional, Chlorocebus aethiops
# HEK293 [14] = test: Cytotoxicity against human HEK293 cells at 100 ug/mL after 120 hrs by MTT assay; format: functional
# HEK293 [15] = test: Cytotoxicity against human HEK293 cells at 2.5 ug/mL after 96 hrs by MTT assay; format: functional
# [16] = Cytotoxicity against monkey GMK cells at 100 ug/mL after 48 hrs by MTT assay; format: functional, Chlorocebus aethiops
# [17] = Cytotoxicity against monkey GMK cells at 5 ug/mL after 72 hrs by MTT assay; format: functional, Chlorocebus aethiops
# [18] = Cytotoxicity against monkey GMK cells at 25 ug/mL after 72 hrs by MTT assay; format: functional, Chlorocebus aethiops
# Echovirus E9 [19] = test: Antiviral activity against Human echovirus 9 in GMK cells assessed as virus titre at 200 ug/mL after 1 hr; format: functional
# HEK293 [20] = test: Cytotoxicity against human HEK293 cells at 25 ug/mL after 96 hrs by MTT assay; format: functional
# HEK293 [21] = test: Cytotoxicity against human HEK293 cells at 10 ug/mL after 72 hrs by MTT assay; format: functional
# [22] = Cytotoxicity against monkey GMK cells at 5 ug/mL after 120 hrs by MTT assay; format: functional, Chlorocebus aethiops
# [23] = Cytotoxicity against monkey GMK cells at 5 ug/mL after 96 hrs by MTT assay; format: functional, Chlorocebus aethiops
# [24] = Cytotoxicity against monkey GMK cells at 2.5 ug/mL after 72 hrs by MTT assay; format: functional, Chlorocebus aethiops
# [25] = Cytotoxicity against monkey GMK cells at 10 ug/mL after 120 hrs by MTT assay; format: functional, Chlorocebus aethiops
# Human adenovirus 5 [26] = test: Antiviral activity against Human adenovirus 5 in HEK293 cells assessed as virus titre at 200 ug/mL after 1 hr; format: functional
# HEK293 [27] = test: Cytotoxicity against human HEK293 cells at 50 ug/mL after 24 hrs by MTT assay; format: functional
# Human adenovirus 5 [28] = test: Antiviral activity against Human adenovirus 5 in HEK293 cells assessed as virus titre at 100 ug/mL after 1 hr; format: functional
# [29] = Cytotoxicity against monkey GMK cells at 10 ug/mL after 48 hrs by MTT assay; format: functional, Chlorocebus aethiops
# Echovirus E9 [30] = test: Antiviral activity against Human echovirus 9 in GMK cells assessed as virus titre at 50 ug/mL after 1 hr; format: functional
# HEK293 [31] = test: Cytotoxicity against human HEK293 cells at 25 ug/mL after 72 hrs by MTT assay; format: functional
# [32] = Cytotoxicity against monkey GMK cells at 50 ug/mL after 48 hrs by MTT assay; format: functional, Chlorocebus aethiops
# HEK293 [33] = test: Cytotoxicity against human HEK293 cells at 2.5 ug/mL after 72 hrs by MTT assay; format: functional
# [34] = Cytotoxicity against monkey GMK cells at 10 ug/mL after 72 hrs by MTT assay; format: functional, Chlorocebus aethiops
# HEK293 [35] = test: Cytotoxicity against human HEK293 cells at 5 ug/mL after 120 hrs by MTT assay; format: functional
# [36] = Cytotoxicity against monkey GMK cells at 200 ug/mL after 48 hrs by MTT assay; format: functional, Chlorocebus aethiops
# HEK293 [37] = test: Cytotoxicity against human HEK293 cells at 25 ug/mL after 120 hrs by MTT assay; format: functional
# [38] = Cytotoxicity against monkey GMK cells at 200 ug/mL after 96 hrs by MTT assay; format: functional, Chlorocebus aethiops
# HEK293 [39] = test: Cytotoxicity against human HEK293 cells at 200 ug/mL after 48 hrs by MTT assay; format: functional
# [40] = Cytotoxicity against monkey GMK cells at 5 ug/mL after 48 hrs by MTT assay; format: functional, Chlorocebus aethiops
# HEK293 [41] = test: Cytotoxicity against human HEK293 cells at 50 ug/mL after 120 hrs by MTT assay; format: functional
# [42] = Cytotoxicity against monkey GMK cells at 25 ug/mL after 24 hrs by MTT assay; format: functional, Chlorocebus aethiops
# HEK293 [43] = test: Cytotoxicity against human HEK293 cells at 5 ug/mL after 24 hrs by MTT assay; format: functional
# [44] = Cytotoxicity against monkey GMK cells at 50 ug/mL after 96 hrs by MTT assay; format: functional, Chlorocebus aethiops
# HEK293 [45] = test: Cytotoxicity against human HEK293 cells at 200 ug/mL after 72 hrs by MTT assay; format: functional
# HEK293 [46] = test: Cytotoxicity against human HEK293 cells at 2.5 ug/mL after 48 hrs by MTT assay; format: functional
# [47] = Cytotoxicity against monkey GMK cells at 2.5 ug/mL after 120 hrs by MTT assay; format: functional, Chlorocebus aethiops
# [48] = Cytotoxicity against monkey GMK cells at 50 ug/mL after 120 hrs by MTT assay; format: functional, Chlorocebus aethiops
# HEK293 [49] = test: Cytotoxicity against human HEK293 cells at 25 ug/mL after 24 hrs by MTT assay; format: functional
# HEK293 [50] = test: Cytotoxicity against human HEK293 cells at 25 ug/mL after 48 hrs by MTT assay; format: functional
# [51] = Cytotoxicity against monkey GMK cells at 25 ug/mL after 48 hrs by MTT assay; format: functional, Chlorocebus aethiops
# HEK293 [52] = test: Cytotoxicity against human HEK293 cells at 2.5 ug/mL after 120 hrs by MTT assay; format: functional
# [53] = Cytotoxicity against monkey GMK cells at 100 ug/mL after 72 hrs by MTT assay; format: functional, Chlorocebus aethiops
# [54] = Cytotoxicity against monkey GMK cells at 50 ug/mL after 24 hrs by MTT assay; format: functional, Chlorocebus aethiops
# [55] = Cytotoxicity against monkey GMK cells at 2.5 ug/mL after 24 hrs by MTT assay; format: functional, Chlorocebus aethiops
# HEK293 [56] = test: Cytotoxicity against human HEK293 cells at 10 ug/mL after 120 hrs by MTT assay; format: functional
# [57] = Cytotoxicity against monkey GMK cells at 100 ug/mL after 120 hrs by MTT assay; format: functional, Chlorocebus aethiops
compound,measurement,setting,value
COC(=O)CC1NN=C2N(CCN2c2cccc(Cl)c2)C1=O (configuration not stated),Activity,[1],80%
same,Activity,HEK293 [2],90%
same,Activity,[3],20%
same,Activity,HEK293 [4],100%
same,Activity,[5],100%
same,Activity,HEK293 [6],100%
same,Activity,[7],100%
same,Activity,HEK293 [8],35%
same,TCID50,Echovirus E9 [9],3 mL⁻¹
same,Activity,HEK293 [10],30%
same,Activity,HEK293 [11],98%
same,Activity,HEK293 [12],100%
same,Activity,[13],95%
same,Activity,HEK293 [14],50%
same,Activity,HEK293 [15],100%
same,Activity,[16],50%
same,Activity,[17],100%
same,Activity,[18],95%
same,TCID50,Echovirus E9 [19],3.33 mL⁻¹
same,Activity,HEK293 [20],95%
same,Activity,HEK293 [21],100%
same,Activity,[22],100%
same,Activity,[23],100%
same,Activity,[24],100%
same,Activity,[25],100%
same,TCID50,Human adenovirus 5 [26],3.23 mL⁻¹
same,Activity,HEK293 [27],95%
same,TCID50,Human adenovirus 5 [28],3.5 mL⁻¹
same,Activity,[29],100%
same,TCID50,Echovirus E9 [30],3.33 mL⁻¹
same,Activity,HEK293 [31],98%
same,Activity,[32],95%
same,Activity,HEK293 [33],100%
same,Activity,[34],100%
same,Activity,HEK293 [35],100%
same,Activity,[36],10%
same,Activity,HEK293 [37],95%
same,Activity,[38],0%
same,Activity,HEK293 [39],40%
same,Activity,[40],100%
same,Activity,HEK293 [41],90%
same,Activity,[42],100%
same,Activity,HEK293 [43],100%
same,Activity,[44],90%
same,Activity,HEK293 [45],35%
same,Activity,HEK293 [46],100%
same,Activity,[47],100%
same,Activity,[48],90%
same,Activity,HEK293 [49],100%
same,Activity,HEK293 [50],100%
same,Activity,[51],100%
same,Activity,HEK293 [52],100%
same,Activity,[53],20%
same,Activity,[54],100%
same,Activity,[55],100%
same,Activity,HEK293 [56],100%
same,Activity,[57],0%
